From US10494414B2, “Immunoglobulin G-binding peptide” (KANEKA CORPORATION, priority 2014, dated 2019)

Assays:
Fab region = conditions: Non-patent Documents 1 and 2; cited from earlier work
Anti-RSV antibody - Fc = target: T1, Anti-RSV antibody - Fc (Homo sapiens, UniProt P01857); assay: Biacore surface plasmon resonance affinity for IgG-Fc of anti-RSV monoclonal antibody; format: binding
T1 construct: a Fc region of a heavy chain is composed of CH2 and CH3; purchased CHUGAI PHARMACEUTICAL CO., LTD; Synagis
Excerpt: (§1) A humanized monoclonal IgG product as a raw material was fragmented into a Fab fragment and a Fc fragment using papain, and only the Fab fragment was separated and purified. Hereinafter, a method for producing IgG-Fc/IgG-Fab derived from anti-RSV monoclonal antibody (generic name: Palivizumab) is described. The term “RSV” is an abbreviation of RS virus. In the present disclosure, when other IgG-Fc and IgG-Fab were used for evaluation, the fragments were basically prepared in a similar method.
(§2) Specifically, a humanized monoclonal IgG product (“Synagis” manufactured by CHUGAI PHARMACEUTICAL CO., LTD., in the case of anti-RS virus monoclonal agent) was dissolved in a buffer for papain treatment (0.1M AcOH—AcONa, 2 mM EDTA, 1 mM cysteine, pH 5.5), and agarose immobilized by papain (“Papain Agarose from papaya latex” manufactured by SIGMA) was added thereto. The mixture was incubated with stirring by a rotator at 37° C. for about 8 hours. The IgG-Fc was purified from the reaction mixture which contained both of a Fab fragment and a Fc fragment and which was separated from the agarose immobilized by papain by recovering the IgG-Fc as a flow-through fraction of an affinity chromatography using Kappa Select column (manufactured by GE Healthcare Bioscience). The IgG-Fab was purified by recovering the IgG-Fab as a flow-through fraction in an affinity chromatography using KanCapA column (manufactured by GE Healthcare Bioscience). The obtained crude IgG-Fc solution was subjected to purification by gel filtration chromatography using Superdex 75 10/300 GL column to obtain IgG-Fc solution. In the chromatography, a standard buffer was used for equilibration and separation. The obtained crude IgG-Fab solution was similarly subjected to purification. […]
(§3) The affinity of the peptide obtained in the above-described Example 1(2) for the Fc region and Fab region of anti-RSV monoclonal antibody was evaluated using a biosensor Biacore3000 (manufactured by GE Healthcare Bioscience) utilizing surface plasmon resonance. […]

Anti-RSV antibody - Fab = assay: Biacore surface plasmon resonance affinity for IgG-Fab of anti-RSV monoclonal antibody; format: binding, human
Excerpt: as §1, §2, §3

Anti-EGFR antibody - Fab = assay: Biacore surface plasmon resonance affinity for IgG-Fab of anti-EGFR monoclonal antibody; format: binding
Protocol: The affinity of the peptide obtained in the above-described Example 1(2) for the Fc region and Fab region of anti-RSV monoclonal antibody was evaluated using a biosensor Biacore3000 (manufactured by GE Healthcare Bioscience) utilizing surface plasmon resonance. In the present Example, the IgG-Fc or IgG-Fab obtained in the above-described Example 2(1) was immobilized on a sensor tip, and the peptide solution was flowed across the sensor tip to detect the interaction between the two. The IgG-Fab or IgG-Fc was immobilized on a sensor tip CM5 by amine coupling method using N-hydroxysuccinimide (NHS) and N-ethyl-N′-(3-dimethylaminopropyl)carbodiimide hydrochloride (EDC), and ethanolamine was used for blocking. All of the sensor tip and reagents for immobilization was manufactured by GE Healthcare Bioscience. The IgG-Fab solution was diluted to about 10 times using a buffer for immobilization (10 mM AcOH—AcONa, pH 4.5), and the IgG-Fab was immobilized on the sensor tip in accordance with the protocol attached to the Biacore 3000. In addition, a reference cell as negative control was also prepared by activating another flow cell on the tip with EDC/NHS and then immobilizing ethanolamine only. Peptide solutions having concentrations of 16 nM, 64 nM or 256 nM were prepared using a running buffer (20 mM NaH2PO4—Na2HPO4, 150 mM NaCl, 0.005% P-20, pH 7.4). Each peptide solution was added to the sensor tip in a flow rate of 40 μL/min for 1 minute. Bonding response curves at the time of addition (association phase, 1 minute) and after the addition (dissociation phase, 1 minute) were sequentially obtained at a measurement temperature of 25° C. […]
(§4) Also, the affinity of the peptide according to the present invention (SEQ ID NO: 2) for IgG-Fab prepared from anti-EGFR monoclonal antibody (“Erbitux” sold by Bristol-Myers Squibb) and anti-TNFα monoclonal antibody (“Remicade” sold by Mitsubishi Tanabe Pharma Corporation) was evaluated. The IgG-Fab was prepared in a similar manner to the above-described (1), and the affinity was basically evaluated in a similar manner to the above-described (2). […]

Anti-TNFα antibody - Fab = assay: Biacore surface plasmon resonance affinity for IgG-Fab of anti-TNFα monoclonal antibody; format: binding
Protocol: The affinity of the peptide obtained in the above-described Example 1(2) for the Fc region and Fab region of anti-RSV monoclonal antibody was evaluated using a biosensor Biacore3000 (manufactured by GE Healthcare Bioscience) utilizing surface plasmon resonance. In the present Example, the IgG-Fc or IgG-Fab obtained in the above-described Example 2(1) was immobilized on a sensor tip, and the peptide solution was flowed across the sensor tip to detect the interaction between the two. The IgG-Fab or IgG-Fc was immobilized on a sensor tip CM5 by amine coupling method using N-hydroxysuccinimide (NHS) and N-ethyl-N′-(3-dimethylaminopropyl)carbodiimide hydrochloride (EDC), and ethanolamine was used for blocking. All of the sensor tip and reagents for immobilization was manufactured by GE Healthcare Bioscience. The IgG-Fab solution was diluted to about 10 times using a buffer for immobilization (10 mM AcOH—AcONa, pH 4.5), and the IgG-Fab was immobilized on the sensor tip in accordance with the protocol attached to the Biacore 3000. […]
as §4
Each peptide was prepared in a similar method to the above-described Example 1 except that the combination of single-stranded oligo DNAs shown in Table 3 was used for preparing expression plasmid. […] As representative data, the affinity for IgG-Fab of anti-TNFα monoclonal antibody was evaluated by a similar manner to the above-described Example 2. […] For example, the value in the left graph is logarithm (Log 10) of a value calculated by dividing an affinity constant (KA) of each peptide by an affinity constant of SEQ ID NO: 2. […]

[1] = target: T2, IgG-Fc of anti-TNFα monoclonal antibody (Homo sapiens, UniProt P01857); assay: Binding response versus peptide concentration on immobilized IgG-Fc (Biacore); conditions: about 10000 RU immobilized, peptide 25-200 nM, response 1 minute after addition, SEQ ID NO: 14 specifically 0.4 to 0.6
T2 construct: a Fc region of a heavy chain is composed of CH2 and CH3; purchased Mitsubishi Tanabe Pharma Corporation Remicade

[2] = tested on: IgG-Fab of anti-TNFα monoclonal antibody; assay: Binding response versus peptide concentration on immobilized IgG-Fab (Biacore); conditions: about 10000 RU immobilized, peptide 25-200 nM, response 1 minute after addition, SEQ ID NO: 14 specifically 0.4 to 0.6
Fab fragment = assay: Association constant of wild Protein G to Fab fragment in Biacore system; format: binding; conditions: 25° C., pH 7.4
Excerpt: For example, as a binding parameter, association constant (KA) and dissociation constant (KD) can be used ([NT] et al., “Real-Time Analysis Experimental Method for Interaction Between Biological Substances”, Springer-Verlag Tokyo, 1998, p. 41). An association constant between the present invention peptide and a Fc fragment or a Fab fragment can be measured by immobilizing a Fc fragment or a Fab fragment on a sensor tip and adding the present invention peptide into a flow channel under a condition of the temperature of 25° C. and pH 7.4 in Biacore system. In an experiment utilizing Biacore system, the order of a parameter may be largely changed depending on an experimental condition, an analysis method and/or the kind of used original IgG. Under such a circumstance, when an evaluation is also conducted by using a wild Protein G in the same experimental condition and analysis method, it becomes standard whether the measured association constant is larger or not in comparison with the association constant of wild Protein G to a Fab region. The performance of a conventional wild Protein G is not sufficient as a peptide which binds to both of a Fc region and a Fab region of an immunoglobulin G, since the binding force thereof to a Fab region is not sufficient. […] A wild Protein G is easily available as a commercial reagent for study. […]

[3] = Anti-RSV antibody - Fc immobilized, 25° C., pH 7.4, 1:1 binding model
[4] = Anti-RSV antibody - Fab immobilized, 25° C., pH 7.4, 1:1 binding model

Substance: Protein G: IgG-binding cell wall protein produced by Streptococcus sp. classified into Group G
- association constant (KA) to a Fab region, times less than that to a Fc region (Fab region): 10 times

Substance: SEQ ID NO: 2: IgG-binding peptide (SpG mutant) having the amino acid sequence of SEQ ID NO: 2, with N-terminal Gly-Pro-Leu-Gly-Ser from the vector (TTYKLILNGKTLTGYTTAIAADAATAEIVLKQFANDNGIDGEWTYDDATKTFTVTE; N-terminal vector-derived residues; Immunoglobulin-binding peptide)
- koff (Anti-RSV antibody - Fc; [3]): 0.028 s⁻¹
- kon (Anti-RSV antibody - Fc; [3]): 97000 s/M
- KA (Anti-RSV antibody - Fc; Anti-RSV antibody - Fc, KA=kon/koff): 3.5e+06 M⁻¹
- koff (Anti-RSV antibody - Fab; [4]): 0.003 s⁻¹
- kon (Anti-RSV antibody - Fab; [4]): 66000 s/M
- KA (Anti-RSV antibody - Fab; Anti-RSV antibody - Fab, KA=kon/koff): 2e+07 M⁻¹
- KA (Anti-EGFR antibody - Fab; KA=kon/koff): 6.5e+07 M⁻¹
- koff (Anti-EGFR antibody - Fab; peptide 25, 100, 400 nM): 0.039 s⁻¹
- kon (Anti-EGFR antibody - Fab; peptide 25, 100, 400 nM): 252000 s/M
- KA (Anti-TNFα antibody - Fab; KA=kon/koff): 4e+07 M⁻¹
- koff (Anti-TNFα antibody - Fab; peptide 25, 100, 400 nM): 0.01 s⁻¹
- kon (Anti-TNFα antibody - Fab; peptide 25, 100, 400 nM): 413000 s/M

Substance: SEQ ID NO: 14: IgG-binding peptide; difference from SEQ ID NO: 2: Xaa21 = Asp, Xaa28 = Lys (TTYKLILNGKTLTGYTTAIADDAATAEKVLKQFANDNGIDGEWTYDDATKTFTVTE; Immunoglobulin-binding peptide)
- inclination of approximate curve of binding response versus peptide concentration [1]: about 0.5
- inclination of approximate curve of binding response versus peptide concentration [2]: about 0.5

Substance: wild Protein G: conventional wild Protein G, available as a commercial reagent for study
- association constant KA to a Fab fragment, as an order (Fab fragment): about 10^5
